From paper PMC9934367, “Functional impact of subunit composition and compensation on Drosophila melanogaster nicotinic receptors–targets of neonicotinoids” (PLOS Genetics, 2023)
Like-named read-outs stand apart in the source and are kept apart here.

What was measured:
Assay type in all cases: cell-based, D. melanogaster
Dα3/Dβ1 nAChR = molecular target: T1, Dα3/Dβ1 nAChR (Drosophila melanogaster, UniProt P04755+Q9W3G6); test: cell-based; settings: Dα3/Dβ1 nAChR, mean ± standard error (n = 5)
T1 construct: Dβ1 (NP_523927); expressed in transfected cells; host or cells: Xenopus laevis oocytes (cRNA injection)
Method: (§1) cDNAs of the nAChR subunits and co-factors were cloned into pcDNA3.1 (+) vector (Thermo Fisher Scientific). The accession numbers of the nAChR subunits and cofactors are as follows: Dα1 (NP_524481), Dα2 (NP_524482), Dα3 (NP_525079), Dα4 (CAB77445), Dβ1 (NP_523927), Dβ2 (NP_524483), Dβ3 (NP_525098), DmRIC-3 (CAP16647), DmUNC-50 (NP_649813), and DmTMX3 (NP_648847). cRNAs were prepared using the mMESSAGE mMACHINE T7 ULTRA Transcription Kit (Thermo Fisher Scientific, #AM1345) according to the manual with the cDNA template which was cut with appropriate restriction enzymes at the 3’ end of the cDNA.
(§2) We minimised the use of X. laevis according to the UK Animals (Scientific Procedures) Act, 1986. […] Oocytes were defolliculated after collagenase treatment in Ca^2+-free standard oocyte saline (Ca^2+-free SOS). cRNAs of the nAChR subunits and co-factors mixed at a concentration of 0.1 mg/mL was injected into oocytes at a volume of 50 nL. Then the oocytes were incubated in the incubation medium (SOS supplemented with sodium pyruvate (Nacalai Tesque, #13058–12), penicillin-streptomycin (MilliporeSigma, #P4333), gentamycin (Nacalai Tesque, #16672–04), and 4% horse serum (Thermo Fisher Scientific, #26050–070) for 3−4 days prior to electrophysiology.
(§3) Each defolliculated X. laevis oocyte was secured in a Perspex recording chamber and perfused with the standard oocyte saline (SOS) containing 0.5 μM atropine (SOSA) at a flow rate of 7−10 mL/min [48]. Two glass electrodes filled with 2 M KCl were impaled into each oocyte and the membrane potential was clamped at -100 mV. […] The peak amplitude of the response was measured and analysed by pCLAMP (Molecular Devices, USA).
(§4) Y=Imax/1+10^(logEC50‐X)nH
(§5) Where Y is the normalised response, X is log[ligand (M)], EC50 is the half maximal concentration (M), Imax is the maximum normalised response and nH is the Hill coefficient.

Dα1/Dβ1/Dβ2 nAChR = molecular target: T2, Dα1/Dβ1/Dβ2 nAChR (Drosophila melanogaster, UniProt P04755+P09478+P25162); test: Voltage-clamp electrophysiology, nAChR expressed in X. laevis oocytes
T2 construct: Dα1 (NP_524481); Dβ1 (NP_523927); Dβ2 (NP_524483); expressed in transfected cells; host or cells: Xenopus laevis oocytes (cRNA injection)
Method: as §1, §2, §3, §4, §5

Dα2/Dα3/Dβ1 nAChR = molecular target: T3, Dα2/Dα3/Dβ1 nAChR (Drosophila melanogaster, UniProt P04755+P17644+Q9W3G6); test: as above; settings: Dα2/Dα3/Dβ1 nAChR, mean ± standard error (n = 5)
T3 construct: Dα2 (NP_524482); Dβ1 (NP_523927); expressed in transfected cells; host or cells: Xenopus laevis oocytes (cRNA injection)
Method: as §1, §2, §3, §4, §5

[1] = efficacy, mean ± standard error (n = 5)
[2] = normalised to maximum ACh response
[3] = normalised to maximum ACh response, mean ± standard error (n = 5)

Compound | Imax (Dα3/Dβ1 nAChR; efficacy) | Imax (Dα1/Dβ1/Dβ2 nAChR; [1]) | Imax (Dα2/Dα3/Dβ1 nAChR; efficacy) | EC50 (Dα3/Dβ1 nAChR) [nM] | Imax (Dα3/Dβ1 nAChR; [2]) | Imax (Dα1/Dβ1/Dβ2 nAChR; [3]) | EC50 (Dα1/Dβ1/Dβ2 nAChR; read-out: EC50) [nM] | EC50 (Dα2/Dα3/Dβ1 nAChR) [nM] | Imax (Dα2/Dα3/Dβ1 nAChR; [2]) | EC50 (Dα1/Dβ1/Dβ2 nAChR; mean ± standard error (n = 5), read-out: pEC50 (converted)) [nM]
CC(=O)OCC[N+](C)(C)C [ACh, acetylcholine] | 1 | 1 | 1 | – | – | – | – | – | – | –
CN/C(=N\[N+](=O)[O-])NCc1cnc(Cl)s1 [Clothianidin, clothianidin] | 0.691 | 0.360 | 0.882 | 28.8 | 0.691 ± 0.013 | 0.360 ± 0.016 | 229 | 155 | 0.882 ± 0.076 | –
O=[N+]([O-])NC1=NCCN1Cc1ccc(Cl)nc1 [Imidacloprid, imidacloprid] | 0.032 | 0.076 | 0.101 | 4.79 | 0.032 ± 0.003 | 0.076 ± 0.006 | 102 | 132 | 0.101 ± 0.016 | –
N#C/N=C1\SCCN1Cc1ccc(Cl)nc1 [Thiacloprid, thiacloprid] | 0.016 | 0.043 | 0.045 | 15.8 | 0.016 ± 0.001 | 0.043 ± 0.002 | – | 120 | 0.045 ± 0.006 | 13.8
